The text below walks through data of article PMC4579598 (2015).

The subject of test [1] is myc2345 (DNA, G4) TGAGGGTGGGGAGGGTGGGGAA
As to the kind of experiment: displacement of DAOTA-M2 followed by fluorescence lifetime (FLIM). To be noted: 100 mM K+; 10 mM lithium cacodylate pH 7.3; DAOTA-M2 displaced, duplex DNA present.

Test [2] has as its system ds17 (DNA, duplex) CCAGTTCGTAGTAACCC/GGGTTACTACGAACTGG
As to the kind of experiment: fluorescence emission titration. To be noted: 100 mM K+; 10 mM lithium cacodylate pH 7.3, 2 μM compound; per binding motif; log Ka 5.7-6.1 over all DNAs.

The test system of test [3] is PDGF-A (DNA, G4) GGAGGCGGGGGGGGGGGGGCGGGGGCGGGGGCGGGGGAGGGGCGCGGC
Nature of the test: fluorescence emission titration. To be noted: 100 mM K+ (DNA annealed in 25 mM K+); 10 mM lithium cacodylate pH 7.3, 2 μM compound; per binding motif; log Ka 5.7-6.1 over all DNAs.

In test [4] the test system is TBA (DNA, G4) GGTTGGTGTGGTTGG
Nature of the test: fluorescence emission titration. The following applies: 100 mM K+; 10 mM lithium cacodylate pH 7.3, 2 μM compound; log Ka 5.7-6.1 over all DNAs.

The subject of test [5] is ss17 (DNA, single strand) CCAGTTCGTAGTAACCC
Nature of the test: fluorescence emission titration. The following applies: 100 mM K+; 10 mM lithium cacodylate pH 7.3, 2 μM compound; per five-base motif; log Ka 5.7-6.1 over all DNAs.

Test [6] has as its system myc2345 (DNA, G4) TGAGGGTGGGGAGGGTGGGGAA
Nature of the test: fluorescence emission titration. To be noted: 100 mM K+; 10 mM lithium cacodylate pH 7.3, 2 μM compound; per binding motif; log Ka 5.7-6.1 over all DNAs.

As to `NCCOc1cc(C(=O)Nc2cc(OCCN)c3ccccc3n2)nc(C(=O)Nc2cc(OCCN)c3ccccc3n2)c1`, the binding entry in test [1] is “yes”.
On to `c1cc2oc3cccc4c3[c+]3c2c(c1)n(CCN1CCOCC1)c1cccc(c13)n4CCN1CCOCC1`, for which the binding result in test [2], in test [4], in test [5] and in test [6] was “yes” throughout. Further, the Ka in test [3] stood at 761000 M⁻¹.
